# Source: ChEMBL document CHEMBL3232814, “Synthesis and anticancer structure activity relationship investigation of cationic anthraquinone analogs” (2014)
# Assays:
# Staphylococcus aureus = experiment: Antimicrobial activity against Staphylococcus aureus ATCC 25923 after 12 to 18 hrs by 2-fold serial dilution method; format: functional
# [1] = test system: NCI-60 human cancer cell line panel (Homo sapiens); experiment: Anticancer activity against NCI 60 human cancer cell lines assessed as mean cell growth in single dose assay
# [2] = Growth inhibition of human NCI60 cells assessed as cell growth; format: functional; parameters: concentration or dose not given beside the values
# [3] = Growth inhibition of human LOXIMVI cells; format: functional; settings: LOX IMVI; for CC50: read-out: LC50 (the source's name)
# Malme-3M = experiment: Growth inhibition of human MALME-3M cells; format: functional; settings: for CC50: read-out: LC50 (the source's name)
# M14 = experiment: Growth inhibition of human M14 cells; format: functional; settings: for CC50: read-out: LC50 (the source's name)
# MDA-MB-435 = experiment: Growth inhibition of human MDA-MB-435 cells; format: functional; settings: for CC50: read-out: LC50 (the source's name)
# SK-MEL-2 = experiment: Growth inhibition of human SK-MEL-2 cells; format: functional; settings: for CC50: read-out: LC50 (the source's name)
# SK-MEL-28 = experiment: Growth inhibition of human SK-MEL-28 cells; format: functional; settings: for CC50: read-out: LC50 (the source's name)
# SK-MEL-5 = experiment: Growth inhibition of human SK-MEL-5 cells; format: functional
# [4] = Growth inhibition of human UACC257 cells; format: functional; settings: for GI50: UACC-257; for CC50: UACC-257, read-out: LC50 (the source's name)
# [5] = Growth inhibition of human UACC62 cells; format: functional; settings: for GI50: UACC-62; for CC50: UACC-62, read-out: LC50 (the source's name)
# COLO 205 = experiment: Growth inhibition of human COLO205 cells; format: functional; settings: for CC50: read-out: LC50 (the source's name)
# [6] = Growth inhibition of human HCC2998 cells; format: functional; settings: for GI50: HCC 2998; for CC50: HCC 2998, read-out: LC50 (the source's name)
# HCT-116 = experiment: Growth inhibition of human HCT116 cells; format: functional; settings: for CC50: read-out: LC50 (the source's name)
# [7] = Growth inhibition of human HCT15 cells; format: functional; settings: for GI50: HCT-15; for CC50: HCT-15, read-out: LC50 (the source's name)
# HT-29 = experiment: Growth inhibition of human HT-29 cells; format: functional
# KM12 = experiment: Growth inhibition of human KM12 cells; format: functional; settings: for CC50: read-out: LC50 (the source's name)
# SW-620 = experiment: Growth inhibition of human SW620 cells; format: functional; settings: for CC50: read-out: LC50 (the source's name)
# A549 = experiment: Growth inhibition of human A549 cells; format: functional; settings: for CC50: read-out: LC50 (the source's name)
# [8] = Growth inhibition of human EKVX cells; format: functional; settings: for CC50: read-out: LC50 (the source's name)
# HOP-62 = experiment: Growth inhibition of human HOP62 cells; format: functional; settings: for CC50: read-out: LC50 (the source's name)
# [9] = Growth inhibition of human HOP92 cells; format: functional; settings: for GI50: HOP-92; for CC50: HOP-92, read-out: LC50 (the source's name)
# NCI-H226 = experiment: Growth inhibition of human NCI-H226 cells; format: functional; settings: for CC50: read-out: LC50 (the source's name)
# NCI-H23 = experiment: Growth inhibition of human NCI-H23 cells; format: functional; settings: for CC50: read-out: LC50 (the source's name)
# NCI-H460 = experiment: Growth inhibition of human NCI-H460 cells; format: functional; settings: for CC50: read-out: LC50 (the source's name)
# NCI-H522 = experiment: Growth inhibition of human NCI-H522 cells; format: functional; settings: for CC50: read-out: LC50 (the source's name)
# SF-268 = experiment: Growth inhibition of human SF268 cells; format: functional; settings: for CC50: read-out: LC50 (the source's name)
# [10] = Growth inhibition of human SF295 cells; format: functional; settings: SF-295
# [11] = Growth inhibition of human SF539 cells; format: functional; settings: for GI50: SF-539; for CC50: SF-539, read-out: LC50 (the source's name)
# SNB-19 = experiment: Growth inhibition of human SNB19 cells; format: functional
# SNB-75 = experiment: Growth inhibition of human SNB75 cells; format: functional; settings: for CC50: read-out: LC50 (the source's name)
# U-251 = experiment: Growth inhibition of human U251 cells; format: functional
# NCI-H322M = experiment: Growth inhibition of human NCI-H322M cells; format: functional
smiles,measurement,setting,value
Cn1n[n+](C)c2c1C(=O)c1ccccc1C2=O.[Cl-],MIC,Staphylococcus aureus,2 µg/mL
same,Activity,[1],-46%
CCCCCCCCn1n[n+](C)c2c1C(=O)c1ccccc1C2=O.[Cl-],MIC,Staphylococcus aureus,0.032 µg/mL
same,Activity,[1],44.8%
C[n+]1nn(Cc2ccccc2)c2c1C(=O)c1ccccc1C2=O.[Cl-],MIC,Staphylococcus aureus,2 µg/mL
same,Activity,[1],-37.9%
C[n+]1nn(-c2ccccc2)c2c1C(=O)c1ccccc1C2=O.[Cl-],Activity,[2],-10.18%
same,GI50,[3],1.16 µM
same,CC50,[3],5.55 µM
same,GI50,Malme-3M,0.21 µM
same,CC50,Malme-3M,0.65 µM
same,GI50,M14,0.2 µM
same,CC50,M14,0.55 µM
same,GI50,MDA-MB-435,0.2 µM
same,CC50,MDA-MB-435,0.58 µM
same,GI50,SK-MEL-2,2.18 µM
same,CC50,SK-MEL-2,6.44 µM
same,GI50,SK-MEL-28,1.19 µM
same,CC50,SK-MEL-28,6.47 µM
same,GI50,SK-MEL-5,0.18 µM
same,LC50 (lethal concentration 50),SK-MEL-5,0.55 µM
same,GI50,[4],1.7 µM
same,CC50,[4],4.49 µM
same,GI50,[5],1.09 µM
same,CC50,[5],5.23 µM
same,GI50,COLO 205,0.19 µM
same,CC50,COLO 205,0.62 µM
same,GI50,[6],0.34 µM
same,CC50,[6],3.69 µM
same,GI50,HCT-116,0.32 µM
same,CC50,HCT-116,1.5 µM
same,GI50,[7],1.29 µM
same,CC50,[7],6.37 µM
same,GI50,HT-29,0.4 µM
same,LC50,HT-29,> 100 µM
same,GI50,KM12,0.82 µM
same,CC50,KM12,9.3 µM
same,GI50,SW-620,0.55 µM
same,CC50,SW-620,3.84 µM
same,GI50,A549,0.35 µM
same,CC50,A549,5.46 µM
same,GI50,[8],1.89 µM
same,CC50,[8],12.6 µM
same,GI50,HOP-62,0.76 µM
same,CC50,HOP-62,5.57 µM
same,GI50,[9],4.17 µM
same,CC50,[9],9.15 µM
same,CC50,NCI-H226,5.3 µM
same,GI50,NCI-H23,0.98 µM
same,CC50,NCI-H23,6.54 µM
same,GI50,NCI-H460,0.3 µM
same,CC50,NCI-H460,4.23 µM
same,GI50,NCI-H522,11.5 µM
same,CC50,NCI-H522,7.74 µM
same,GI50,SF-268,1.64 µM
same,CC50,SF-268,> 100 µM
same,GI50,[10],0.54 µM
same,LC50 (concentration killing 50% of cells),[10],4.97 µM
same,GI50,[11],1.09 µM
same,CC50,[11],4.72 µM
same,GI50,SNB-19,1.07 µM
same,LC50,SNB-19,4.34 µM
same,GI50,SNB-75,0.64 µM
same,CC50,SNB-75,5.87 µM
same,GI50,U-251,1.26 µM
same,LC50,U-251,4.33 µM
same,MIC,Staphylococcus aureus,8 µg/mL
COc1ccc(-n2n[n+](C)c3c2C(=O)c2ccccc2C3=O)cc1.O=S(=O)([O-])C(F)(F)F,Activity,[2],-24.7%
same,GI50,[3],1.24 µM
same,GI50,Malme-3M,0.24 µM
same,CC50,Malme-3M,2.11 µM
same,GI50,M14,0.21 µM
same,CC50,M14,0.88 µM
same,GI50,MDA-MB-435,0.19 µM
same,CC50,MDA-MB-435,0.68 µM
same,GI50,SK-MEL-2,2.05 µM
same,CC50,SK-MEL-2,> 100 µM
same,GI50,SK-MEL-28,1.13 µM
same,CC50,SK-MEL-28,6.52 µM
same,GI50,SK-MEL-5,0.16 µM
same,LC50 (lethal concentration 50),SK-MEL-5,0.61 µM
same,GI50,[4],1.45 µM
same,CC50,[4],5.52 µM
same,GI50,[5],1.01 µM
same,CC50,[5],6.16 µM
same,GI50,COLO 205,0.23 µM
same,CC50,COLO 205,0.96 µM
same,GI50,[6],0.45 µM
same,CC50,[6],4.72 µM
same,GI50,HCT-116,0.37 µM
same,CC50,HCT-116,> 100 µM
same,GI50,[7],1.23 µM
same,CC50,[7],7.17 µM
same,GI50,HT-29,0.38 µM
same,LC50,HT-29,> 100 µM
same,GI50,KM12,0.97 µM
same,CC50,KM12,6.24 µM
same,GI50,SW-620,0.38 µM
same,CC50,SW-620,5.33 µM
same,GI50,A549,0.33 µM
same,CC50,A549,> 100 µM
same,GI50,[8],2.42 µM
same,CC50,[8],33 µM
same,GI50,HOP-62,0.98 µM
same,CC50,HOP-62,5.14 µM
same,GI50,[9],3.47 µM
same,CC50,[9],> 100 µM
same,GI50,NCI-H23,1.05 µM
same,CC50,NCI-H23,> 100 µM
same,GI50,NCI-H460,0.3 µM
same,CC50,NCI-H460,6.32 µM
same,GI50,NCI-H522,2.05 µM
same,CC50,NCI-H522,18.2 µM
same,GI50,SF-268,1.72 µM
same,CC50,SF-268,> 100 µM
same,GI50,[10],0.63 µM
same,LC50 (concentration killing 50% of cells),[10],5.25 µM
same,GI50,[11],1.28 µM
same,CC50,[11],5.6 µM
same,GI50,SNB-19,1.01 µM
same,LC50,SNB-19,4.94 µM
same,GI50,SNB-75,1.25 µM
same,CC50,SNB-75,5.15 µM
same,GI50,U-251,1.16 µM
same,LC50,U-251,5.77 µM
same,MIC,Staphylococcus aureus,4 µg/mL
Cc1ccc(-n2n[n+](C)c3c2C(=O)c2ccccc2C3=O)cc1.O=S(=O)([O-])C(F)(F)F,Activity,[2],11.53%
same,GI50,[3],1.8 µM
same,CC50,[3],23 µM
same,GI50,Malme-3M,0.32 µM
same,CC50,Malme-3M,13 µM
same,GI50,M14,0.26 µM
same,CC50,M14,3.57 µM
same,GI50,MDA-MB-435,0.17 µM
same,CC50,MDA-MB-435,0.6 µM
same,GI50,SK-MEL-2,2.17 µM
same,CC50,SK-MEL-2,41.1 µM
same,GI50,SK-MEL-28,2.65 µM
same,CC50,SK-MEL-28,36.5 µM
same,GI50,[4],1.85 µM
same,CC50,[4],17.7 µM
same,GI50,[5],1.65 µM
same,CC50,[5],6.38 µM
same,GI50,COLO 205,0.43 µM
same,CC50,COLO 205,4.43 µM
same,GI50,[6],1.13 µM
same,CC50,[6],5.4 µM
same,GI50,HCT-116,1.55 µM
same,CC50,HCT-116,7.92 µM
same,GI50,[7],2.44 µM
same,CC50,[7],41.2 µM
same,GI50,HT-29,2.1 µM
same,LC50,HT-29,> 100 µM
same,GI50,KM12,1.38 µM
same,CC50,KM12,13.9 µM
same,GI50,SW-620,1.76 µM
same,CC50,SW-620,19.2 µM
same,GI50,A549,1.11 µM
same,CC50,A549,10 µM
same,GI50,[8],4.16 µM
same,CC50,[8],46.8 µM
same,GI50,HOP-62,2.16 µM
same,CC50,HOP-62,17.8 µM
same,GI50,[9],0.42 µM
same,CC50,[9],46.8 µM
same,GI50,NCI-H226,2.93 µM
same,CC50,NCI-H226,36.1 µM
same,GI50,NCI-H23,0.65 µM
same,CC50,NCI-H23,6.07 µM
same,GI50,NCI-H322M,0.88 µM
same,CC50,NCI-H322M; read-out: LC50 (the source's name),5.38 µM
same,GI50,NCI-H460,0.33 µM
same,CC50,NCI-H460,6.13 µM
same,GI50,NCI-H522,8.14 µM
same,CC50,NCI-H522,60 µM
same,GI50,SF-268,3.14 µM
same,CC50,SF-268,4.43 µM
same,GI50,[10],1.04 µM
same,LC50 (concentration killing 50% of cells),[10],5.4 µM
same,GI50,[11],1.97 µM
same,CC50,[11],9.89 µM
same,GI50,SNB-19,1.39 µM
same,LC50,SNB-19,5.48 µM
same,GI50,SNB-75,2.09 µM
same,CC50,SNB-75,8.91 µM
same,GI50,U-251,2.43 µM
same,LC50,U-251,31.8 µM
same,MIC,Staphylococcus aureus,4 µg/mL
